# Results reported in article PMC8800111 (The Journal of Biological Chemistry, 2021).
# Assays:
# Assay type in all cases: cell-based
# [1] = biological target: proteins of U3A human fibrosarcoma cells (4462 proteins detected) (Homo sapiens, UniProt O00299); settings: protein CLIC1, U3A cells
# [2] = biological target: proteins of U3A human fibrosarcoma cells (4462 proteins detected) (Homo sapiens, UniProt O94925); settings: protein GLS; U3A, 10 μM, 2 h
# [3] = biological target: proteins of U3A human fibrosarcoma cells (4462 proteins detected) (Homo sapiens, UniProt O95059); settings: protein RPP14; soluble abundance after heat, U3A cells
# Sequence of proteins of U3A human fibrosarcoma cells (4462 proteins detected) (Homo sapiens, UniProt O95059) (O95059 whole entry): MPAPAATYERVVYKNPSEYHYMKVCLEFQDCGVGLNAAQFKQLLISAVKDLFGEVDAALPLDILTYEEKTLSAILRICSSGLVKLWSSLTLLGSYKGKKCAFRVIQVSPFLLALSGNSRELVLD
# [4] = biological target: proteins of U3A human fibrosarcoma cells (4462 proteins detected) (Homo sapiens, UniProt O95218); settings: protein ZRANB2, U3A cells
# Sequence of proteins of U3A human fibrosarcoma cells (4462 proteins detected) (Homo sapiens, UniProt O95218) (O95218 whole entry): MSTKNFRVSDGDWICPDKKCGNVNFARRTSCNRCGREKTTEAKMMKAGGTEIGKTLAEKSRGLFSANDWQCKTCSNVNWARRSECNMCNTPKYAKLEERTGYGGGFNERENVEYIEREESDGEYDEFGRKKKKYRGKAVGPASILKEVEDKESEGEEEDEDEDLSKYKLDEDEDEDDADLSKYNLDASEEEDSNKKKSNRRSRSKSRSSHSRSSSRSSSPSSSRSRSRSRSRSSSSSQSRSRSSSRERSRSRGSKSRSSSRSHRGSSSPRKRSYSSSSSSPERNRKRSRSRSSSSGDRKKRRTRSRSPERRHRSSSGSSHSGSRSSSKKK
# [5] = biological target: proteins of U3A human fibrosarcoma cells (4462 proteins detected) (Homo sapiens, UniProt O95453); settings: protein PARN; U3A cells
# [6] = biological target: proteins of U3A human fibrosarcoma cells (4462 proteins detected) (Homo sapiens, UniProt P04818); settings: PISA
# Sequence of proteins of U3A human fibrosarcoma cells (4462 proteins detected) (Homo sapiens, UniProt P04818) (P04818 whole entry): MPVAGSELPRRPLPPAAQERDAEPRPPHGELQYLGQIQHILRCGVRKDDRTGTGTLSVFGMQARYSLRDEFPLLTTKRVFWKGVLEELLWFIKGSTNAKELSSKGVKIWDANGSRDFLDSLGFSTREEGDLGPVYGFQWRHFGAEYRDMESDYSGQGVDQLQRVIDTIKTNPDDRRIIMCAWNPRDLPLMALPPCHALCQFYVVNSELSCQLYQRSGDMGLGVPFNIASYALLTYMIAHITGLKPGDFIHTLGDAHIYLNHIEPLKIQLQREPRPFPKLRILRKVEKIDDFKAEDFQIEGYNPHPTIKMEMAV
# [7] = biological target: proteins of U3A human fibrosarcoma cells (4462 proteins detected) (Homo sapiens, UniProt P07910); settings: protein HNRNPC; U3A, 10 μM, 2 h
# Sequence of proteins of U3A human fibrosarcoma cells (4462 proteins detected) (Homo sapiens, UniProt P07910) (P07910 whole entry): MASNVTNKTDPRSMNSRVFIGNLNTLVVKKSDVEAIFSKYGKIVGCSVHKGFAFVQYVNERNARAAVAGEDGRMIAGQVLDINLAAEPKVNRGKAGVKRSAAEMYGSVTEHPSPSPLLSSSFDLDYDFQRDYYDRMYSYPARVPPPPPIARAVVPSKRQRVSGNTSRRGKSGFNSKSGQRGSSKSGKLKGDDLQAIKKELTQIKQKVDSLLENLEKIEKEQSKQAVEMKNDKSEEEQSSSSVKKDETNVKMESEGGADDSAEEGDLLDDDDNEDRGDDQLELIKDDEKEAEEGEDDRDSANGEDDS
# [8] = biological target: proteins of U3A human fibrosarcoma cells (4462 proteins detected) (Homo sapiens, UniProt P16298); settings: protein PPP3CB; U3A cells
# [9] = biological target: proteins of U3A human fibrosarcoma cells (4462 proteins detected) (Homo sapiens, UniProt P28290); settings: protein SSFA2; U3A, 10 μM, 2 h
# [10] = biological target: proteins of U3A human fibrosarcoma cells (4462 proteins detected) (Homo sapiens, UniProt P37837); settings: protein TALDO1, U3A cells
# [11] = biological target: proteins of U3A human fibrosarcoma cells (4462 proteins detected) (Homo sapiens, UniProt P46939); settings: protein UTRN; soluble abundance after heat, U3A cells
# [12] = biological target: proteins of U3A human fibrosarcoma cells (4462 proteins detected) (Homo sapiens, UniProt P54886); settings: protein ALDH18A1; U3A cells
# [13] = biological target: proteins of U3A human fibrosarcoma cells (4462 proteins detected) (Homo sapiens, UniProt Q12765); settings: protein SCRN1, U3A cells
# [14] = biological target: proteins of U3A human fibrosarcoma cells (4462 proteins detected) (Homo sapiens, UniProt Q13303); settings: protein KCNAB2, U3A cells
# [15] = biological target: proteins of U3A human fibrosarcoma cells (4462 proteins detected) (Homo sapiens, UniProt Q15366); settings: protein PCBP2; U3A cells
# Sequence of proteins of U3A human fibrosarcoma cells (4462 proteins detected) (Homo sapiens, UniProt Q15366) (Q15366 whole entry): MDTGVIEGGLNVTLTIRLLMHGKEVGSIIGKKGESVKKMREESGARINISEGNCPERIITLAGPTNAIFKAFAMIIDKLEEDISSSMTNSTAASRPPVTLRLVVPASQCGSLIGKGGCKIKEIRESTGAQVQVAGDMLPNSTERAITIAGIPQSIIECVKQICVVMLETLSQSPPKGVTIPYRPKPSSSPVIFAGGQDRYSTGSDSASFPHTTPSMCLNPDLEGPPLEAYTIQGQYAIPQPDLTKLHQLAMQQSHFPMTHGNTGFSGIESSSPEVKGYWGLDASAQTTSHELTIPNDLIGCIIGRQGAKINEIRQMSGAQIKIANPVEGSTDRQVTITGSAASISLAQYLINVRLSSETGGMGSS
# [16] = biological target: proteins of U3A human fibrosarcoma cells (4462 proteins detected) (Homo sapiens, UniProt Q6P3W2); settings: protein DNAJC24; ZCSL3, U3A cells
# Sequence of proteins of U3A human fibrosarcoma cells (4462 proteins detected) (Homo sapiens, UniProt Q6P3W2) (Q6P3W2 whole entry): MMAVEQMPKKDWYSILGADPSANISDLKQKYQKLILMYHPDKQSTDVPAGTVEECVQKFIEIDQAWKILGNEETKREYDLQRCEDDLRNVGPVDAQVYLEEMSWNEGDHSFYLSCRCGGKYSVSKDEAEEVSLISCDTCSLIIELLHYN
# [17] = biological target: proteins of U3A human fibrosarcoma cells (4462 proteins detected) (Homo sapiens, UniProt Q8IWW6); settings: protein ARHGAP12; soluble abundance after heat, U3A cells
# Sequence of proteins of U3A human fibrosarcoma cells (4462 proteins detected) (Homo sapiens, UniProt Q8IWW6) (Q8IWW6 whole entry): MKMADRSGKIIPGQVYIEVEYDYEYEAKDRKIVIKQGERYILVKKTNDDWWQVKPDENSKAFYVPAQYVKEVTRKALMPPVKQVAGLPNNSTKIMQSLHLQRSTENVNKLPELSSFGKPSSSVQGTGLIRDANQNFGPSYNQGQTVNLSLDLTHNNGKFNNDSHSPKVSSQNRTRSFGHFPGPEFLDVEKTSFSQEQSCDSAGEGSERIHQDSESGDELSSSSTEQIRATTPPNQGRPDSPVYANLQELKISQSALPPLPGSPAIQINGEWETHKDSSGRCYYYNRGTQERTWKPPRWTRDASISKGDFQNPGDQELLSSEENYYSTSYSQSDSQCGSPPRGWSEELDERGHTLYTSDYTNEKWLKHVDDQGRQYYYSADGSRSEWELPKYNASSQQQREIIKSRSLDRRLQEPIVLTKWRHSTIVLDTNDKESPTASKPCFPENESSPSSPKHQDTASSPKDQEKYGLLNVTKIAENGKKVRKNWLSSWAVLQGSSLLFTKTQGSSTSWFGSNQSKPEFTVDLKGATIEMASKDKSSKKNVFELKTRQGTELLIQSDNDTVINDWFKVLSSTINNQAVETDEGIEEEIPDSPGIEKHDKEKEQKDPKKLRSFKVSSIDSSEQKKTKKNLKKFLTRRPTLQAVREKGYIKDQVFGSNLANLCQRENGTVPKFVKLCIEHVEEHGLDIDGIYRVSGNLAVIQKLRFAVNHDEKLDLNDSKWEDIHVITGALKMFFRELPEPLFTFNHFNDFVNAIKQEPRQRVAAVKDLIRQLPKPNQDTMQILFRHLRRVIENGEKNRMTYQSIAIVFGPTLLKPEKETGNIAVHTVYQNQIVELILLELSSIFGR
# [18] = biological target: proteins of U3A human fibrosarcoma cells (4462 proteins detected) (Homo sapiens, UniProt Q8NFF5); settings: protein FLAD1; U3A cells
# [19] = biological target: proteins of U3A human fibrosarcoma cells (4462 proteins detected) (Homo sapiens, UniProt Q8NFH4); settings: protein NUP37, U3A cells
# [20] = biological target: proteins of U3A human fibrosarcoma cells (4462 proteins detected) (Homo sapiens, UniProt Q8NI22); settings: protein MCFD2, U3A cells
# Sequence of proteins of U3A human fibrosarcoma cells (4462 proteins detected) (Homo sapiens, UniProt Q8NI22) (Q8NI22 27-146): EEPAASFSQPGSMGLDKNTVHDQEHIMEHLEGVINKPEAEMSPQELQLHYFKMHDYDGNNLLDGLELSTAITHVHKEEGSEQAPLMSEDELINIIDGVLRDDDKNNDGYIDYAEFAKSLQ
# [21] = biological target: proteins of U3A human fibrosarcoma cells (4462 proteins detected) (Homo sapiens, UniProt Q96GM5); settings: protein SMARCD1; U3A cells
# [22] = biological target: proteins of U3A human fibrosarcoma cells (4462 proteins detected) (Homo sapiens, UniProt Q96T37); settings: protein RBM15; U3A cells
# [23] = biological target: proteins of U3A human fibrosarcoma cells (4462 proteins detected) (Homo sapiens, UniProt Q9GZT3); settings: protein SLIRP, U3A cells
# [24] = biological target: proteins of U3A human fibrosarcoma cells (4462 proteins detected) (Homo sapiens, UniProt Q9NQZ2); settings: protein UTP3; soluble abundance after heat, U3A cells
# Sequence of proteins of U3A human fibrosarcoma cells (4462 proteins detected) (Homo sapiens, UniProt Q9NQZ2) (Q9NQZ2 whole entry): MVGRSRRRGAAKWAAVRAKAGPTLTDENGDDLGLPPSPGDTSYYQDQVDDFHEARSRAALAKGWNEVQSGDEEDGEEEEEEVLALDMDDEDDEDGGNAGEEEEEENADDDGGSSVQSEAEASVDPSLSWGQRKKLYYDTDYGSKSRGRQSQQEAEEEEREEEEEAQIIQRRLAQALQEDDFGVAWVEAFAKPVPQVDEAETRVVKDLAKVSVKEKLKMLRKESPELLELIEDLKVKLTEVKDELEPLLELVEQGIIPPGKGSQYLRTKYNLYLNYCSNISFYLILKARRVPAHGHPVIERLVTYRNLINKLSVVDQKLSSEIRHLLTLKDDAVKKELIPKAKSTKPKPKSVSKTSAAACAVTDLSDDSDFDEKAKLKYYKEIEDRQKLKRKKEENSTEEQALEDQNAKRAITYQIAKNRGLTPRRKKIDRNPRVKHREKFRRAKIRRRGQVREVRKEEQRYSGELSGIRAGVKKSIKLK
# [25] = biological target: proteins of U3A human fibrosarcoma cells (4462 proteins detected) (Homo sapiens, UniProt Q9NR28); settings: protein DIABLO; U3A cells
# Sequence of proteins of U3A human fibrosarcoma cells (4462 proteins detected) (Homo sapiens, UniProt Q9NR28) (Q9NR28 22-239): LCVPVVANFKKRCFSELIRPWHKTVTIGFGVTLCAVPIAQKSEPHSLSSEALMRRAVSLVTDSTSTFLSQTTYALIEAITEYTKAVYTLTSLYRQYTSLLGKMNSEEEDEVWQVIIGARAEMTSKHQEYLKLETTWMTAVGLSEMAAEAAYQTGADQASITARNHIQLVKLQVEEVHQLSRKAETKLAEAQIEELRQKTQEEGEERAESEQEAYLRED
# [26] = biological target: proteins of U3A human fibrosarcoma cells (4462 proteins detected) (Homo sapiens, UniProt Q9NTX5); settings: protein ECHDC1; U3A cells
# Sequence of proteins of U3A human fibrosarcoma cells (4462 proteins detected) (Homo sapiens, UniProt Q9NTX5) (Q9NTX5 whole entry): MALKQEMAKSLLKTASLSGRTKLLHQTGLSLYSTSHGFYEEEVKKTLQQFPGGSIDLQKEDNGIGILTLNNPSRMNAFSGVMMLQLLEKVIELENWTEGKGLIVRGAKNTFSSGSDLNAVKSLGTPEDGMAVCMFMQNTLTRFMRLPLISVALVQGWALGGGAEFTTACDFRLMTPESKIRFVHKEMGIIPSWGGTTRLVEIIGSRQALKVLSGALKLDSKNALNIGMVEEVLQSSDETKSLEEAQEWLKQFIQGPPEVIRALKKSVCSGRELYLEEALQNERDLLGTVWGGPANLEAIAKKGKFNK
# [27] = biological target: proteins of U3A human fibrosarcoma cells (4462 proteins detected) (Homo sapiens, UniProt Q9NYZ3); settings: protein GTSE1; U3A cells
# Sequence of proteins of U3A human fibrosarcoma cells (4462 proteins detected) (Homo sapiens, UniProt Q9NYZ3) (Q9NYZ3 whole entry): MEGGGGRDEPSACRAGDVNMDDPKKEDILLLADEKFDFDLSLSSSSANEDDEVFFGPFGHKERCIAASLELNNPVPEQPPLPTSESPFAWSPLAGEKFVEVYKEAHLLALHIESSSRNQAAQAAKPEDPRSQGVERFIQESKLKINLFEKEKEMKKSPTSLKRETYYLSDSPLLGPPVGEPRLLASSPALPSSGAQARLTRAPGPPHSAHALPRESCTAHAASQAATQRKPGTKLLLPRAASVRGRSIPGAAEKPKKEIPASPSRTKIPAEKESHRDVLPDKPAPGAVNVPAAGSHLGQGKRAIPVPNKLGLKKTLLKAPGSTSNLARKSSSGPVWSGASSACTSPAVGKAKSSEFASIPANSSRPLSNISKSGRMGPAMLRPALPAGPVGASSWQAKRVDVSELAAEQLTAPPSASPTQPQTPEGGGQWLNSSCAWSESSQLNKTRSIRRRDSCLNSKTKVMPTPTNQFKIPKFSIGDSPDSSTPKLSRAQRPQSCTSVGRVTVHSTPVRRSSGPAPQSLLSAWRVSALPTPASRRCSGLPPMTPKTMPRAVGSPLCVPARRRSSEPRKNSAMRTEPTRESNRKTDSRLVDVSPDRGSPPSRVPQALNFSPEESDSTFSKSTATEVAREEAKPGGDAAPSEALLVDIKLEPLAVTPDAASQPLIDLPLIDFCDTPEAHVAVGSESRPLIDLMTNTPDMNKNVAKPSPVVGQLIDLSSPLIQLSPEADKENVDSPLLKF
# [28] = biological target: proteins of U3A human fibrosarcoma cells (4462 proteins detected) (Homo sapiens, UniProt Q9UIV1); settings: protein CNOT7; U3A, 10 μM, 2 h
# [29] = biological target: proteins of U3A human fibrosarcoma cells (4462 proteins detected) (Homo sapiens, UniProt Q9UMX5); settings: protein NENF, U3A cells
# [30] = biological target: proteins of U3A human fibrosarcoma cells (4462 proteins detected) (Homo sapiens, UniProt Q9Y6G3); settings: protein MRPL42; soluble abundance after heat, U3A cells
# Sequence of proteins of U3A human fibrosarcoma cells (4462 proteins detected) (Homo sapiens, UniProt O94925) (O94925 55-669): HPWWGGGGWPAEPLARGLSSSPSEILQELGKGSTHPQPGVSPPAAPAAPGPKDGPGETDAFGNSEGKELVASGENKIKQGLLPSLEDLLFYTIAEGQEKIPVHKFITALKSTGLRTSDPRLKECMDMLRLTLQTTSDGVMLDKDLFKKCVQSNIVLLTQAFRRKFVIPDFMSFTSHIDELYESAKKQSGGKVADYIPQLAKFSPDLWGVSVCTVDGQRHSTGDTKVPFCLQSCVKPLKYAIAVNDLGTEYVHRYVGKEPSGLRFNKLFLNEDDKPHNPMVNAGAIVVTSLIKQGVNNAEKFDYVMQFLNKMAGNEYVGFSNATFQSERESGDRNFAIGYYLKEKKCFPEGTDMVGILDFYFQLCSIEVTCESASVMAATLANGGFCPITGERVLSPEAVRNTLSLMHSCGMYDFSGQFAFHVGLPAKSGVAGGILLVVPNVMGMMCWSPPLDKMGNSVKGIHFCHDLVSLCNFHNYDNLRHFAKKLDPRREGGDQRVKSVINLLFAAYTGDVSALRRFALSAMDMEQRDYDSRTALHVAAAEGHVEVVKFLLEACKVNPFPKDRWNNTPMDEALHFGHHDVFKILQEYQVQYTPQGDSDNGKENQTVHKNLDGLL
smiles,measurement,setting,value
CCc1nc(N)nc(N)c1-c1ccc(Cl)cc1 [pyrimethamine],Log2 (PYR/DMSO),[1],-0.03
same,"Log2 (PYR/DMSO), GLS",[2],0.24
same,Log2 (PYR/DMSO),[3],0.14
same,Log2 (PYR/DMSO),[4],-0.04
same,Log2 (PYR/DMSO),[5],0.21
same,engagement of TS (thymidylate synthase),[6],no engagement
same,"Log2 (PYR/DMSO), HNRNPC",[7],0.27
same,Log2 (PYR/DMSO),[8],0.19
same,"Log2 (PYR/DMSO), SSFA2",[9],-0.15
same,Log2 (PYR/DMSO),[10],-0.04
same,Log2 (PYR/DMSO),[11],0.13
same,Log2 (PYR/DMSO),[12],0.17
same,Log2 (PYR/DMSO),[13],-0.04
same,Log2 (PYR/DMSO),[14],-0.03
same,Log2 (PYR/DMSO),[15],0.18
same,Log2 (PYR/DMSO),[16],-0.04
same,Log2 (PYR/DMSO),[17],0.13
same,Log2 (PYR/DMSO),[18],0.16
same,Log2 (PYR/DMSO),[19],-0.04
same,Log2 (PYR/DMSO),[20],-0.05
same,Log2 (PYR/DMSO),[21],0.17
same,Log2 (PYR/DMSO),[22],0.17
same,Log2 (PYR/DMSO),[23],-0.04
same,Log2 (PYR/DMSO),[24],0.15
same,Log2 (PYR/DMSO),[25],0.16
same,Log2 (PYR/DMSO),[26],0.18
same,Log2 (PYR/DMSO),[27],0.20
same,"Log2 (PYR/DMSO), CNOT7",[28],-0.24
same,Log2 (PYR/DMSO),[29],-0.04
same,Log2 (PYR/DMSO),[30],0.14
